Results from ChEMBL document CHEMBL1649156, “Antianaerobic activity of sulopenem compared to six other agents” (2009).

Legend:
Assay type in all cases: functional
[1] = tested on: Bifidobacterium; test: Antimicrobial activity in Bifidobacterium by CLSI agar dilution method in presence of Tazobactam
[2] = tested on: Fusobacterium necrophorum; test: Antimicrobial activity in Fusobacterium necrophorum by CLSI agar dilution method in presence of Tazobactam
[3] = tested on: Prevotella disiens; test: Antimicrobial activity in Prevotella disiens by CLSI agar dilution method in presence of Tazobactam
[4] = tested on: Porphyromonas asaccharolytica; test: Antimicrobial activity in Porphyromonas asaccharolytica by CLSI agar dilution method in presence of Tazobactam
[5] = tested on: Prevotella melaninogenica; test: Antimicrobial activity in Prevotella melaninogenica by CLSI agar dilution method in presence of Tazobactam
[6] = tested on: Paraclostridium bifermentans; test: Antimicrobial activity in Clostridium bifermentans by CLSI agar dilution method in presence of Tazobactam
[7] = tested on: Enterocloster clostridioformis; test: Antimicrobial activity in Clostridium clostridioforme by CLSI agar dilution method in presence of Tazobactam
[8] = tested on: Actinomyces; test: Antimicrobial activity in Actinomyces by CLSI agar dilution method in presence of Tazobactam
[9] = tested on: Lactobacillus; test: Antimicrobial activity in Lactobacillus by CLSI agar dilution method in presence of Tazobactam
[10] = tested on: Fusobacterium varium; test: Antimicrobial activity in Fusobacterium varium by CLSI agar dilution method in presence of Tazobactam
[11] = tested on: Prevotella sp.; test: Antimicrobial activity in Prevotella sp.by CLSI agar dilution method in presence of Tazobactam
[12] = tested on: Prevotella baroniae; test: Antimicrobial activity in Prevotella baroniae by CLSI agar dilution method in presence of Tazobactam; conditions: Segatella baroniae
[13] = tested on: Clostridium sp.; test: Antimicrobial activity in Clostridium sp. by CLSI agar dilution method in presence of Tazobactam
[14] = tested on: Clostridium butyricum; test: Antimicrobial activity in Clostridium butyricum by CLSI agar dilution method in presence of Tazobactam
[15] = tested on: Phocaeicola vulgatus; test: Antimicrobial activity in Bacteroides vulgatus by CLSI agar dilution method in presence of Tazobactam
[16] = tested on: Peptostreptococcus anaerobius; test: Antimicrobial activity in Peptostreptococcus anaerobius by CLSI agar dilution method in presence of Tazobactam
[17] = tested on: Clostridium perfringens; test: Antimicrobial activity in Clostridium perfringens by CLSI agar dilution method in presence of Tazobactam
[18] = tested on: Bacteroides thetaiotaomicron; test: Antimicrobial activity in Bacteroides thetaiotaomicron by CLSI agar dilution method in presence of Tazobactam
[19] = tested on: Clostridioides difficile; test: Antimicrobial activity in Clostridium difficile by CLSI agar dilution method in presence of Tazobactam
[20] = tested on: Fusobacterium mortiferum; test: Antimicrobial activity in Fusobacterium mortiferum by CLSI agar dilution method in presence of Tazobactam
[21] = tested on: Prevotella salivae; test: Antimicrobial activity in Prevotella salivae by CLSI agar dilution method in presence of Tazobactam; conditions: Segatella salivae
[22] = tested on: Hoylesella loescheii; test: Antimicrobial activity in Prevotella loescheii by CLSI agar dilution method in presence of Tazobactam
[23] = tested on: Clostridium cadaveris; test: Antimicrobial activity in Clostridium cadaveris by CLSI agar dilution method in presence of Tazobactam
[24] = tested on: Anaerococcus prevotii; test: Antimicrobial activity in Anaerococcus prevotii by CLSI agar dilution method in presence of Tazobactam
[25] = tested on: Finegoldia magna; test: Antimicrobial activity in Finegoldia magna by CLSI agar dilution method in presence of Tazobactam
[26] = tested on: Paeniclostridium sordellii; test: Antimicrobial activity in Clostridium sordellii by CLSI agar dilution method in presence of Tazobactam; conditions: Paraclostridium sordellii
[27] = tested on: Clostridium tertium; test: Antimicrobial activity in Clostridium tertium by CLSI agar dilution method in presence of Tazobactam

Q: Which MIC [1] does the source give for CCN1CCN(C(=O)N[C@@H](C(=O)N[C@@H]2C(=O)N3[C@@H]2SC(C)(C)[C@@H]3C(=O)O)c2ccccc2)C(=O)C1=O [PIPERACILLIN] here?
A: ≤ 0.125 µg/mL

Q: And the MIC50 [1]?
A: ≤ 0.125 µg/mL

Q: And the MIC90 [1]?
A: 0.25 µg/mL

Q: And the MIC [2]?
A: ≤ 0.125 µg/mL

Q: And the MIC50 [2]?
A: ≤ 0.125 µg/mL

Q: What about the MIC [3] of the same compound?
A: ≤ 0.125 µg/mL

Q: And the MIC50 [3]?
A: ≤ 0.125 µg/mL

Q: And the MIC [4]?
A: ≤ 0.125 µg/mL

Q: And the MIC [5]?
A: ≤ 0.125 µg/mL

Q: And the MIC50 [5]?
A: ≤ 0.125 µg/mL

Q: And the MIC90 [5]?
A: ≤ 0.125 µg/mL

Q: What about the MIC [6] of the same compound?
A: 0.5 µg/mL

Q: And the MIC [7]?
A: 8 µg/mL

Q: What about the MIC [8] of the same compound?
A: 0.5 µg/mL

Q: What about the MIC50 [8] of the same compound?
A: 1 µg/mL

Q: What about the MIC50 [9] of the same compound?
A: 2 µg/mL

Q: And the MIC90 [9]?
A: 2 µg/mL

Q: What about the MIC50 [10] of the same compound?
A: 4 µg/mL

Q: What about the MIC90 [10] of the same compound?
A: 8 µg/mL

Q: And the MIC [11]?
A: ≤ 0.125 µg/mL

Q: What about the MIC [12] of the same compound?
A: ≤ 0.125 µg/mL

Q: And the MIC50 [13]?
A: 1 µg/mL

Q: And the MIC90 [13]?
A: 2 µg/mL

Q: What about the MIC [14] of the same compound?
A: 0.5 µg/mL

Q: What about the MIC50 [15] of the same compound?
A: 2 µg/mL

Q: And the MIC90 [15]?
A: 16 µg/mL

Q: What about the MIC [16] of the same compound?
A: 0.25 µg/mL

Q: And the MIC50 [16]?
A: 0.25 µg/mL

Q: What about the MIC90 [16] of the same compound?
A: 16 µg/mL

Q: What about the MIC [17] of the same compound?
A: ≤ 0.125 µg/mL

Q: What about the MIC50 [17] of the same compound?
A: ≤ 0.125 µg/mL

Q: And the MIC90 [17]?
A: 0.5 µg/mL

Q: What about the MIC50 [18] of the same compound?
A: 8 µg/mL

Q: And the MIC90 [18]?
A: 16 µg/mL

Q: And the MIC [19]?
A: 8 µg/mL

Q: And the MIC50 [19]?
A: 8 µg/mL

Q: And the MIC90 [19]?
A: 16 µg/mL

Q: And the MIC [20]?
A: 0.25 µg/mL

Q: And the MIC50 [20]?
A: 0.25 µg/mL

Q: What about the MIC90 [20] of the same compound?
A: 1 µg/mL

Q: What about the MIC [21] of the same compound?
A: ≤ 0.125 µg/mL

Q: And the MIC [22]?
A: ≤ 0.125 µg/mL

Q: What about the MIC [23] of the same compound?
A: ≤ 0.125 µg/mL

Q: What about the MIC [24] of the same compound?
A: ≤ 0.125 µg/mL

Q: And the MIC [25]?
A: ≤ 0.125 µg/mL

Q: And the MIC50 [25]?
A: ≤ 0.125 µg/mL

Q: And the MIC90 [25]?
A: 0.25 µg/mL

Q: What about the MIC [26] of the same compound?
A: ≤ 0.125 µg/mL

Q: And the MIC [27]?
A: 4 µg/mL
